Results reported in patent publication US6528494B2 (priority 1996, dated 2003).
Where a name gives a salt, the structure may show the parent alone.

Columns and labels:
Format in all cases: cell-based
adenosine 3 receptor = biological target: T1, adenosine 3 receptor (Homo sapiens, UniProt P0DMS8); experiment: Agonist activity against adenosine 3 receptor (CHO cells, forskolin-enhanced cAMP/SPAP reporter); settings: CHO cells transfected with human receptor, forskolin-enhanced cAMP via SPAP, mean of all the versions tested
T1 sequence (P0DMS8 1-318): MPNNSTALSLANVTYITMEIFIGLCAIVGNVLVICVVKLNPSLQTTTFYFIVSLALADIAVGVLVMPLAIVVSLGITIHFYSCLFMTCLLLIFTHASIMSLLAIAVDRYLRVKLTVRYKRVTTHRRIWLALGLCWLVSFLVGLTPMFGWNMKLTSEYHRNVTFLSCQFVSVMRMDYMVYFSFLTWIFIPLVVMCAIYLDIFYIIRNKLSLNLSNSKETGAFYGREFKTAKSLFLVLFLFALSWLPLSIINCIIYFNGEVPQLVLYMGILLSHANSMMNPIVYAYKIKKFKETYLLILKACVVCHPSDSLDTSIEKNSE
Method: (§1) (1) Agonist activity against adenosine 2a, adenosine 1 and adenosine 3 receptor subtypes.
(§2) The effect of test compounds was determined by their effects on basal levels of cAMP (A2a) or on forskolin-enhanced cAMP (A1 and A3) as reflected by changes in levels of SPAP.

adenosine 2a receptor = adenosine 2a receptor (Homo sapiens, UniProt P29274); experiment: Agonist activity against adenosine 2a receptor (CHO cells, cAMP/SPAP reporter); settings: CHO cells transfected with human receptor, basal cAMP via SPAP, mean of all the versions tested
Chain of adenosine 2a receptor (P29274 whole entry): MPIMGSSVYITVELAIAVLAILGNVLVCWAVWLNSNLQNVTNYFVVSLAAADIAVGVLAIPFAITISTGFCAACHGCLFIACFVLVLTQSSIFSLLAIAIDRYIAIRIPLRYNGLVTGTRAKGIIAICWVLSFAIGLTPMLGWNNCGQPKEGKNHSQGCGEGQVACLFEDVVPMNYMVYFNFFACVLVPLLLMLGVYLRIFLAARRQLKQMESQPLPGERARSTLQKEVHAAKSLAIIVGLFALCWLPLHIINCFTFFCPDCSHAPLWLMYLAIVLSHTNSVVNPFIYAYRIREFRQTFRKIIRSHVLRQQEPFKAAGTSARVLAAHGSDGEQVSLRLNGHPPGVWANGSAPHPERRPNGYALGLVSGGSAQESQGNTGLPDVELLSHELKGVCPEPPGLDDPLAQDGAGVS
Method: as §1, §2

adenosine 1 receptor = biological target: T2, adenosine 1 receptor (Homo sapiens, UniProt P30542); experiment: Agonist activity against adenosine 1 receptor (CHO cells, forskolin-enhanced cAMP/SPAP reporter); settings: CHO cells transfected with human receptor, forskolin-enhanced cAMP via SPAP, mean of all the versions tested
T2 sequence (P30542 1-326): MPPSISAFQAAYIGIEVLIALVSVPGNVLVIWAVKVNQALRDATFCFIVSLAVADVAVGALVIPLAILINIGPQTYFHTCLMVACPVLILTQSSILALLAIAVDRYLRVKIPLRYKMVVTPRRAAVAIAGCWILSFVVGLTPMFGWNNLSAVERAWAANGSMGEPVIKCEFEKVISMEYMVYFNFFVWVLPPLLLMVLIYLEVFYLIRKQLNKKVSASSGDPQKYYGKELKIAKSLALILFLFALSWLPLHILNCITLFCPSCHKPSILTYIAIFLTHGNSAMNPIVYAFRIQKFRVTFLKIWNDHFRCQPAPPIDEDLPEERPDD
Method: as §1, §2

| Compound | A3 EC50 as a ratio of that of NECA (adenosine 3 receptor) | A2a EC50 as a ratio of that of NECA (adenosine 2a receptor) | A1 EC50 as a ratio of that of NECA (adenosine 1 receptor) | A3 EC50 as a ratio of that of NECA (adenosine 3 receptor; Dihydrochloride) | A2a EC50 as a ratio of that of NECA (adenosine 2a receptor; Dihydrochloride) | A1 EC50 as a ratio of that of NECA (adenosine 1 receptor; Dihydrochloride) |
| --- | --- | --- | --- | --- | --- | --- |
| (2R,3R,4S,5R)-2-[2-(1-Benzyl-pyrrolidin-3-ylamino)-6-cyclopentylamino-purin-9-yl]-5-(2-ethyl-2H-tetrazol-5-yl)-tetrahydro-furan-3,4-diol bis(Formate) [Example 66] | >158 | 1.53 | 48.60 |  |  |  |
| Cn1nnc(C2OC(n3cnc4c(NC(CO)Cc5ccccc5)nc(NC5CCC(N)CC5)nc43)C(O)C2O)n1 [Example 35, (2R,3R,4S,5R)-2-[2-(trans-4-Amino-cyclohexylamino)-6-(1S-hydroxymethyl-2-phenyl-ethylamino)-purin-9-yl]-5-(2-methyl-2H-tetrazol-5-yl)-tetrahydro-furan-3,4-diol bis(Formate)] | >201 | 0.79 | 123 |  |  |  |
| CCn1nnc(C2OC(n3cnc4c(NCC(c5ccccc5)c5ccccc5)nc(NC5CCNC5)nc43)C(O)C2O)n1 [Example 21, (2R,3R,4S,5R)-2-[6-(2,2-Diphenyl-ethylamino)-2-(pyrrolidin-3R-ylamino)-purin-9-yl]-5-(2-ethyl-2H-tetrazol-5-yl)-tetrahydro-furan-3,4-diol Dihydrochloride] |  |  |  | >442 | 0.69 | 237.9 |
| Cn1nnc(C2OC(n3cnc4c(NC5CCCC5)nc(NC(CO)Cc5ccccc5)nc43)C(O)C2O)n1 [Example 36, (2R,3R,4S,5R)-2-[6-Cyclopentylamino-2-(1S-hydroxymethyl-2-phenyl-ethylamino)-purin-9-yl]-5-(2-methyl-2H-tetrazol-5-yl)-tetrahydro-furan-3,4-diol Formate] | >315 | 0.99 | 1.9 |  |  |  |
| Cn1cnc(CCNc2nc(NCC(c3ccccc3)c3ccccc3)c3ncn([C@@H]4O[C@H](c5nnn(C)n5)[C@@H](O)[C@H]4O)c3n2)c1.O=CO [Example 27, (2R,3R,4S,5R)-2-{6-(2,2-Diphenyl-ethylamino)-2-[2-(1-methyl-1H-imidazol-4-yl)-ethylamino]-purin-9-yl}-5-(2-methyl-2H-tetrazol-5-yl)-tetrahydro-furan-3,4-diol Formate] | >286 | 0.08 | 449.7 |  |  |  |
| CCn1nnc([C@H]2O[C@@H](n3cnc4c(N)nc(NCCc5ccc(O)c(O)c5)nc43)[C@H](O)[C@@H]2O)n1.O=CO [Example 15, (2R,3R,4S,5R)-2-{6-Amino-2-[2-(3,4-dihydroxy-phenyl)-ethylamino]-purin-9-yl}-5-(2-ethyl-2H-tetrazol-5-yl)-tetrahydro-furan-3,4-diol Formate] | >209 | 0.55 | 139.5 |  |  |  |
| CCn1nnc(C2OC(n3cnc4c(NC5CCCC5)nc(NC(CO)Cc5ccccc5)nc43)C(O)C2O)n1 [Example 71, (2R,3R,4S,5R)-2-[6-Cyclopentylamino-2-(1S-hydroxymethyl-2-phenyl-ethylamino)-purin-9-yl]-5-(2-ethyl-2H-tetrazol-5-yl)-tetrahydro-furan-3,4-diol Formate] | >158 | 1.99 | 14.78 |  |  |  |
| Cn1cnc(CCNc2nc(NC(CO)Cc3ccccc3)c3ncn(C4OC(c5nnn(C)n5)C(O)C4O)c3n2)c1 [Example 32, (2R,3R,4S,5R)-2-{6-(1S-Hydroxymethyl-2-phenyl-ethylamino)-2-[2-(1-methyl-1H-imidazol-4-yl)-ethylamino]-purin-9-yl}-5-(2-methyl-2H-tetrazol-5-yl)-tetrahydro-furan-3,4-diol Formate] | >100 | 0.026 | 56.2 |  |  |  |
| CCn1nnc(C2OC(n3cnc4c(NCC(c5ccccc5)c5ccccc5)nc(NC5CCNC5)nc43)C(O)C2O)n1 [Example 84, (2R,3R,4S,5R)-2-[6-(2,2-Diphenyl-ethylamino)-2-(pyrrolidin-3S-ylamino)-purin-9-yl]-5-(2-ethyl-2H-tetrazol-5-yl)-tetrahydro-furan-3,4-diol bis(Trifluoroacetate)] | >103 | 2.50 | 490.80 |  |  |  |
| (2R,3R,4S,5R)-2-[6-Cyclopentylamino-2-(2-pyrrolidin-1-yl-ethylamino)-purin-9-yl]-5-(2-methyl-2H-tetrazol-5-yl)-tetrahydro-furan-3,4-diol bis(Formate) [Example 112] | >315 | 2.19 | 472.30 |  |  |  |
| CCn1nnc([C@H]2O[C@@H](n3cnc4c(NCC(c5ccccc5)c5ccccc5)nc(NCCc5cccc(N)n5)nc43)[C@H](O)[C@@H]2O)n1.O=C(O)C(F)(F)F.O=C(O)C(F)(F)F.O=C(O)C(F)(F)F [Example 22, (2R,3R,4S,5R)-2-[2-[2-(6-Amino-pyridin-2-yl)-ethylamino]-6-(2,2-diphenyl-ethylamino)-purin-9-yl]-5-(2-ethyl-2H-tetrazol-5-yl)-tetrahydro-furan-3,4-diol tris(Trifluoroacetate)] | >188 | 0.67 | 86.4 |  |  |  |
| CCn1nnc(C2OC(n3cnc4c(NCCc5ccccc5)nc(NC5CCN(Cc6ccccc6)C5)nc43)C(O)C2O)n1.O=CO.O=CO [Example 75, (2R,3R,4S,5R)-2-[2-(1-Benzyl-pyrrolidin-3-ylamino)-6-phenethylamino-purin-9-yl]-5-(2-ethyl-2H-tetrazol-5-yl)-tetrahydro-furan-3,4-diol bis(Formate)] | >174 | 1.40 | 121.50 |  |  |  |
| CCC(CC)Nc1nc(NCCN2CCOCC2)nc2c1ncn2C1OC(c2nnn(C(C)C)n2)C(O)C1O.O=CO.O=CO [Example 70, (2R,3R,4S,5R)-2-[6-(1-Ethyl-propylamino)-2-(2-morpholin-4-yl-ethylamino)-purin-9-yl]-5-(2-isopropyl-2H-tetrazol-5-yl)-tetrahydro-furan-3,4-diol Diformate] | >405 | 7.24 | 30.55 |  |  |  |
| CCn1nnc([C@H]2O[C@@H](n3cnc4c(N)nc(NCCc5ccc(OC)c(OC)c5)nc43)[C@H](O)[C@@H]2O)n1.O=C(O)C(F)(F)F [Example 20, (2R,3R,4S,5R)-2-{6-Amino-2-[2-(3,4-dimethoxy-phenyl)-ethylamino]-purin-9-yl}-5-(2-ethyl-2H-tetrazol-5-yl)-tetrahydro-furan-3,4-diol Trifluoroacetate] | >183 | 0.14 | 253 |  |  |  |
| Cn1nnc([C@H]2O[C@@H](n3cnc4c(N)nc(NC5CC6CCC5C6)nc43)[C@H](O)[C@@H]2O)n1.O=CO (stereo partly drawn) [Example 39, (2R,3R,4S,5R)-2-[6-Amino-2-(bicyclo[2.2.1]hept-2-ylamino)-purin-9-yl]-5-(2-methyl-2H-tetrazol-5-yl)-tetrahydro-furan-3,4-diol Formate] | >315 | 0.31 | 1429 |  |  |  |
